Assay results reported in patent US20220218725A1, “METHODS AND MATERIALS FOR TREATING CANCER” (Mayo Foundation for Medical Education and Research, priority 2019, published 2022).

Tested on: JeKo-1 cells
Test: Cell viability, Annexin V/PI assay (also IC50 and combination index)
Format: cell-based
Experimental: To assess apoptosis and cellular proliferation, all cell lines were treated with CRM 1 inhibitors (concentration ranging from 0.05-2 μM) and salicylates at concentrations ranging from (0.001-10 mM) for 48 hours before analysis was performed. DMSO was used to substitute the drug in controls.
After 48 hours incubation, cells were washed with Annexin buffer solution and stained with both propidium iodide (PI) and FITC-Annexin V (Life Technologies), and assayed on a BD Accuri flow cytometer (BD Biosciences). Apoptosis results were analyzed with BD CellQuest software. For cell cycle analysis, Jeko-1 cell line was intubated with CRM 1 inhibitors (concentrations ranging from […]) and salicylates (concentration at 3 mM) and Ly-1 cell line was intubated with CRM 1 inhibitors (concentrations ranging from 0.1-2.0 μM) and salicylates (concentration at 0.5-5 mM) for 24 and 48 hours and then fixed with 95% cold ethanol and kept at 4 C° for 24 h and subsequently underwent cell cycle analysis after PI staining and analysis was performed using BD FACS caliber flow cytometer (BD Biosciences) and FlowJo software (Tree Star).
Cell lines were purchased from the cell line repositories ATCC (Manassas, Va.) or DSMZ (Braunschweig, Germany). These included MCL cell lines: JeKo-1, Mino; TCL cell lines: Karpas-299, SR-786; DLBCL cell lines: OCI-Ly1 (LY-1), OCI-Ly3 (LY-3), OCI-Ly19 (LY-19), SU-DHL-6 (DHL-6); MM cell lines: RPMI, U266, OPM2, Xgl, KMS2; ALL cell lines: CRL-1783; non-small cell lung cancer: NCI-H460, A549, HCC827; small cell lung cancer: H1048; sarcoma: Fuji, SW872. Cell lines were cultured according to instruction.
KPT-330 purchased from Selleckchem (cat no: S7252) was dissolved in DMSO while CS (Santa Cruz, Calif.S 2016-36-6), sodium salicylate (Sigma-Aldrich, cat no: S3007), acetyl salicylate (Sigma-Aldrich, cat no: CAS 50-78-2) was diluted in PBS. Ketorolac (Sigma-Aldrich, cat no: 1356665), Bortezomib (Selleckchem, cat no: S1013), gemcitabine (Sigma-Aldrich, cat no: G6423), Leptomycin-B (Sigma-Aldrich, cat no: L2913-2X) and KPT-185 (Selleckchem, cat no: S7125) were dissolved in DMSO. The concentration range of KPT-330 was 0.05-1.0 μM while CS was 1-3 mM were used for ex vivo treatment and incubation time ranged from 24 hours to 72 hours. For the PARP inhibitor assay, olaparib 10 μM (SelleckChem, cat no: AZD2281 Ku-0059436) was used.
The viability assessment for cell lines and primary patients samples were conducted with the Annexin V/PI method.
Jeko-1 and OCI-Ly1 cell lines were used to assess the IC50. Keeping CS at 3 mM, KPT-330 was titrated. Relative IC50 was calculated as described elsewhere (see, e.g., Sebaugh et al., Pharmaceutical statistics 10:128-134 (2011)). The combination index was calculated as described elsewhere (see, e.g., Chou et al., Cancer Res 70:440-446 (2010)).

Structure (SMILES): O=C(c1cc(Cc2n[nH]c(=O)c3ccccc23)ccc1F)N1CCN(C(=O)C2CC2)CC1 [Olaparib, olaparib]
- antitumor activity with PARP inhibitor (JeKo-1, olaparib 10 μM, KPT-330 0.5 μM, CS 3 mM, 48 h, AnnexinV/PI): did not have any antitumor activity

Structure (SMILES): CC(C)[C@H](NC(=O)c1ccc2ccccc2n1)C(=O)N[C@@H](CC(=O)O)C(=O)COc1c(F)cccc1F [Q-VD-OPh]
- effect of pan-caspase inhibitor on K+CS induced cell death (JeKo-1, 48 hours, KPT-330 0.5 μM and CS 3 mM): rescued cells from K+CS induced cell death

Structure (SMILES): Cc1cn([C@H]2C[C@H](O)[C@@H](CO)O2)c(=O)[nH]c1=O [thymidine]
- cell viability after K+CS treatment with exogenous thymidine (JeKo-1 in thymidine-free media, 0.5 μM KPT-330, 3 mM CS, 10 μM thymidine, 48 hours): statistically significant increase in cell viability
